In the supplement of paper PMC10307832:

Experiments:
Assay in all cases: relative viability (nuclei count vs DMSO), 5 days (fraction); higher = more cells survive
[1] = compound: C[As](C)SC[C@H](NC(=O)CC[C@H](N)C(=O)O)C(=O)NCC(=O)O [Darinaparsin] + Cc1cc(Nc2cc(N3CCN(C)CC3)nc(Sc3ccc(NC(=O)C4CC4)cc3)n2)n[nH]1 [Tozasertib] (partner 0.1 µM)
Outline: (§1)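 Relative viability divides the nuclei count in treated wells by that in vehicle wells. Lung cancer cell lines were seeded in 1536-well plates, dosed by pin tool the next day, and fixed and stained after 5 days in one step with final 0.05% Triton X-100, 1% formaldehyde and 1 ug/ml Hoechst. Dosing was a single drug or a fixed anchor-drug dose plus five library-drug doses (not always all listed) in √10 steps, and values are medians of duplicate plates imaged at 4×.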

[2] = compound: C[As](C)SC[C@H](NC(=O)CC[C@H](N)C(=O)O)C(=O)NCC(=O)O [Darinaparsin] + Cc1nc(NC(=O)N2CCC[C@H]2C(N)=O)sc1-c1ccnc(C(C)(C)C(F)(F)F)c1 [Alpelisib] (partner 2 µM)
Outline: as §1

[3] = compound: C1CC2=C(C1)C=C(C=C2)OC3=NC(=C4C(=N3)N(C=N4)CC5=CC=C(C=C5)C6=CC=CC=C6)N[C@@H](CC7=CC=CC=C7)CO [QS11] + CC1(C)CCC(c2ccc(Cl)cc2)=C(CN2CCN(c3ccc(C(=O)NS(=O)(=O)c4ccc(N[C@H](CCN5CCOCC5)CSc5ccccc5)c(S(=O)(=O)C(F)(F)F)c4)cc3)CC2)C1 [Navitoclax] (partner 0.5 µM)
Outline: as §1

[4] = compound: C[As](C)SC[C@H](NC(=O)CC[C@H](N)C(=O)O)C(=O)NCC(=O)O [Darinaparsin] + CC1(C)CCC(c2ccc(Cl)cc2)=C(CN2CCN(c3ccc(C(=O)NS(=O)(=O)c4ccc(N[C@H](CCN5CCOCC5)CSc5ccccc5)c(S(=O)(=O)C(F)(F)F)c4)cc3)CC2)C1 [Navitoclax] (partner 0.5 µM)
Outline: as §1

Cell Line | relative viability ([1]; first compound 0.08 µM) | relative viability ([1]; first compound 0.8 µM) | relative viability ([1]; first compound 2.53 µM) | relative viability ([1]; first compound 8 µM) | relative viability ([2]; first compound 0.08 µM) | relative viability ([2]; first compound 0.8 µM) | relative viability ([2]; first compound 2.53 µM) | relative viability ([2]; first compound 8 µM) | relative viability ([3]; first compound 0.08 µM) | relative viability ([3]; first compound 0.253 µM) | relative viability ([3]; first compound 0.8 µM) | relative viability ([3]; first compound 2.53 µM) | relative viability ([3]; first compound 8 µM) | relative viability ([4]; first compound 0.08 µM) | relative viability ([4]; first compound 0.8 µM) | relative viability ([4]; first compound 2.53 µM) | relative viability ([4]; first compound 8 µM)
201T | 1.04 | 0.914 | 0.994 | 1.12 | 1.12 | 1.03 | 0.997 | 0.82 | 1.19 | 1.22 | 0.994 | 1.24 | 1.17 | 1.21 | 1.15 | 1.19 | 1.12
HCC-44 | 1.21 | 0.927 | 0.769 | 0.87 | 0.833 | 0.92 | 0.576 | 0.979 | 0.943 | 0.93 | 0.666 | 0.792 | 0.718 | 1.18 | 1 | 0.864 | 1.19
EMC-BAC-2 | 0.251 | 0.28 | 0.299 | 0.277 | 0.894 | 0.687 | 0.709 | 0.888 | 1.14 | 1.28 | 0.896 | 1.12 | 0.654 | 1.24 | 1.14 | 1 | 1.72
NCI-H2405 | 0.777 | 0.776 | 0.703 | 0.889 | 0.735 | 0.734 | 0.693 | 0.755 | 0.778 | 0.757 | 0.901 | 0.894 | 0.768 | 0.801 | 0.829 | 0.781 | 0.88
NCI-H2342 | 0.545 | 0.443 | 0.53 | 0.44 |  |  |  |  |  |  |  |  |  |  |  |  | 
HOP-62 | 0.352 | 0.414 | 0.343 | 0.354 | 1.24 | 0.755 | 0.786 | 0.991 | 1.07 | 1.15 | 1.04 | 0.785 | 1.22 | 1.39 | 1.2 | 0.963 | 1.13
NCI-H1651 | 0.911 | 0.739 | 0.633 | 0.918 | 1.11 | 0.994 | 0.931 | 1.27 | 1.13 | 0.998 | 0.936 | 0.98 | 0.839 | 1.11 | 1.01 | 0.863 | 0.999
NCI-H2085 | 0.953 | 0.814 | 0.78 | 0.892 | 1.07 | 1 | 1.03 | 0.957 | 1.18 | 1.17 | 1.08 | 1.29 | 1.41 | 1.36 | 1.18 | 1.09 | 1.2
NCI-H2023 | 0.696 | 0.306 | 0.357 | 0.425 | 0.658 | 0.601 | 0.536 | 0.603 | 1.02 | 1.02 | 0.925 | 1.16 | 1.12 | 1.08 | 1.07 | 0.951 | 1.2
UMC-11 | 0.215 | 0.211 | 0.211 | 0.188 | 0.861 | 0.981 | 0.683 | 1.15 | 0.293 | 0.308 | 0.298 | 0.424 | 0.54 | 0.339 | 0.313 | 0.305 | 0.311
NCI-H23 | 0.372 | 0.333 | 0.348 | 0.754 | 0.926 | 0.582 | 0.711 | 0.681 | 0.818 | 0.863 | 0.872 | 0.75 | 0.692 | 1.09 | 0.917 | 0.963 | 1.02
NCI-H1355 | 0.571 | 0.568 | 0.44 | 0.499 | 0.955 | 0.8 | 0.785 | 0.92 | 0.876 | 0.869 | 0.791 | 1.03 | 0.881 | 1.08 | 0.94 | 0.836 | 1.05
NCI-H1734 | 0.276 | 0.257 | 0.256 | 0.297 | 0.829 | 0.67 | 0.669 | 0.766 | 0.803 | 0.96 | 0.751 | 0.568 | 0.663 | 1.07 | 0.947 | 0.806 | 1.11
NCI-H522 | 0.508 | 0.602 | 0.534 | 0.599 |  |  |  |  |  |  |  |  |  |  |  |  | 
NCI-H650 | 0.788 | 0.693 | 0.792 | 0.807 | 1.17 | 1.15 | 1.27 | 1.31 |  |  |  |  |  |  |  |  | 
NCI-H1648 | 0.346 | 0.53 |  | 0.474 |  |  |  |  |  |  |  |  |  |  |  |  | 
NCI-H1650 | 0.473 | 0.325 | 0.417 | 0.394 |  |  |  |  | 1.18 | 1.12 | 1.07 | 1.1 | 1.2 | 1.7 | 1.17 | 1.14 | 1.28
NCI-H1563 |  |  |  |  | 0.903 | 0.91 | 1.01 | 0.894 |  |  |  |  |  |  |  |  | 
NCI-H1703 |  |  |  |  | 0.612 | 0.345 | 0.283 | 0.39 | 1.41 | 1.11 | 1.18 | 1.3 | 1.35 | 1.63 | 1.27 | 1.32 | 0.926
ABC-1 | 0.169 | 0.205 | 0.2 | 0.192 | 0.966 | 1.16 | 1.07 | 1.28 |  |  |  |  |  |  |  |  | 
Calu-6 |  |  |  |  | 1.14 | 0.975 | 1.02 | 0.945 | 1.08 | 0.844 | 0.872 | 1.01 | 0.901 | 1.13 | 0.921 | 0.752 | 0.745
LCLC-103H | 0.491 | 0.517 | 0.507 | 0.441 | 0.945 | 0.982 | 0.915 | 1.11 |  |  |  |  |  |  |  |  | 
NCI-H1623 | 0.467 | 0.404 | 0.416 | 0.399 |  |  |  |  |  |  |  |  |  |  |  |  | 
A549 |  |  |  |  | 0.973 | 0.812 | 0.746 | 1.08 | 1.2 | 1.37 | 1.21 | 1.06 | 0.808 | 1.42 | 1.29 | 1.16 | 1.33
